# Experimental data from PMC6451005, “PCC0208027, a novel tyrosine kinase inhibitor, inhibits tumor growth of NSCLC by targeting EGFR and HER2 aberrations” (Scientific Reports, 2019).
# Marks after values point to notes of the source that are not given here.
# Legend:
# [1] = tested on: HCC827 cells; assay: Cell growth inhibition assay (MTT); format: cell-based; details: Homo sapiens, HCC827, 72 h, read-out: IC50 cell viability
# [2] = tested on: Calu-3 cells; assay: Cell growth inhibition assay (MTT); format: cell-based; details: Homo sapiens, Calu-3, 72 h, read-out: IC50 cell viability
# Procedure: (§1) Human NSCLC cells NCI-H1975, HCC827, Calu-3 and A549were obtained from the Cell Culture Center of the Institute of Basic Medical Sciences, Chinese Academy of Medical Sciences. NCI-H1781 cell line was purchased from Cobioer Biosciences Co., Ltd. With the exception of Calu-3, all cell lines were cultured in RPMI-1640 medium (Gibco, USA) supplemented with 10% fetal bovine serum (FBS) (Gibco, USA). Calu-3 was maintained in Minimum Essential Medium (MEM) supplemented with 10% FBS (Gibco, USA), 5% 100 mM Sodium Pyruvate (Gibco, USA), and 5% Non-Essential Amino Acids Solution (NEAA; Gibco, USA). All cells were incubated at 37 °C with 5% CO2 in air.
# (§2) According to the previous report, 5 × 10^3 cells/100 μL were seeded in culture medium in every well in a 96-well plate for 24 hours. […] After 72 h of treatment, MTT (Beyotime Biotechnology, China) was added at a final concentration of […] and incubated for 3 hours. Following that, DMSO was used to dissolve the formazan product and the Molecular Devices SpectraMax M5 microplate reader (Molecular Devices, USA) was used to measure absorbance at 570 nm and IC50 was calculated.
# [3] = tested on: NCI-H1781 cells; assay: Cell growth inhibition assay (MTT); format: cell-based; details: Homo sapiens, NCI-H1781, 72 h, read-out: IC50 cell viability
# Procedure: as §1, §2
# [4] = tested on: NCI-H1975 cells; assay: Cell growth inhibition assay (MTT); format: cell-based; details: Homo sapiens, NCI-H1975, 72 h, read-out: IC50 cell viability
# Procedure: as §1, §2
# [5] = tested on: A549 cells; assay: Cell growth inhibition assay (MTT); format: cell-based, Human; details: Homo sapiens, A549, 72 h, read-out: IC50 cell viability
# Procedure: as §1, §2
# [6] = tested on: HCC827 cells; assay: Western blot assay; format: cell-based, Human; details: 24 h, Western blotting
# Procedure: (§3) The BCA reagent kit (Beyotime Biotechnology) was used to measure protein content. The cell extracts (50 μg protein) were loaded onto a 4–20% ExpressPlus™ PAGE pre-cast gel (GenScript, China) for electrophoresis before transferring to a PVDF membrane. The membranes were blocked with 5% skimmed milk (prepared using Tris-buffered saline containing 0.05% Tween-20) before incubation with primary antibodies at 4 °C overnight. The membranes were then incubated with HRP-conjugated secondary antibodies at room temperature. The Alphaview SA system and software (version 3.4.0, ProteinSimple, USA) was used for quantitative analysis of the optical density of the bands.
# [7] = tested on: NCI-H1975 cells; assay: Western blot assay; format: cell-based, Human; details: 24 h, Western blotting
# Procedure: as §3
# [8] = tested on: HCC827 xenograft; assay: Nude mouse xenograft model; details: for number of p-EGFR and Ki67 positive cells in tumor tissues: HCC827 xenograft model, IHC, vs control group; for Body weight (g) Begin / Body weight (g) End: HCC827 xenograft
# [9] = tested on: NCI-H1975 xenograft; assay: Nude mouse xenograft model; details: for Body weight (g) Begin / IR (%) inhibition rate of tumor growth (tumor weight) / Body weight (g) End: NCI-H1975 xenograft; for IR (%) inhibition rate of tumor growth (tumor weight): 15 days
# [10] = tested on: Calu-3 xenograft; assay: Nude mouse xenograft model
smiles,measurement,setting,value
C=CC(=O)Nc1cc(Nc2nccc(-c3cn(C)c4ccccc34)n2)c(OC)cc1N(C)CCN(C)C [Osimertinib],IC50,[1],0.00109 ± 0.00022 µM
same,IC50,[2],0.47 ± 0.0073 µM
same,IC50,[3],0.842 ± 0.034 µM
same,IC50,[5],> 1 µM
same,Phosphorylation of EGFR and its downstream AKT and ERK,[6],inhibited
same,EGFR signaling,[7],inhibited
same,number of p-EGFR and Ki67 positive cells in tumor tissues,[8],strongly decreased
same,Body weight (g) Begin,[8]; 2.5 mg/kg/day group,17.57 ± 1.03 g
same,Body weight (g) End,[8]; 2.5 mg/kg/day oral,19.13 ± 0.78 g
same,IR (%) inhibition rate of tumor growth (tumor weight),"[8]; mouse, in vivo, po, 2.5 mg/kg/day",91.19^*** %
same,number of p-EGFR and Ki67 positive cells in tumor tissues,"[9]; NCI-H1975 xenograft model, IHC",strongly decreased
same,Body weight (g) Begin,[9]; 10 mg/kg/day group,16.55 ± 0.82 g
same,IR (%) inhibition rate of tumor growth (tumor weight),[9]; 10 mg/kg/day oral,98.60^*** %
same,Body weight (g) End,[9]; 10 mg/kg/day oral,16.23 ± 1.31 g
same,tumor growth (in words),"[10]; Calu-3 xenograft models, vs. control group",did not show any significant inhibitory activity
same,Body weight (g) Begin,"[10]; Calu-3 xenograft, 5 mg/kg/day group, begin",17.42 ± 0.82 g
same,IR (%) inhibition rate of tumor growth (tumor weight),"[10]; Calu-3 xenograft, 5 mg/kg/day oral, 15 days",20.21%
same,Body weight (g) End,"[10]; Calu-3 xenograft, 5 mg/kg/day oral, end",18.24 ± 0.78 g
C#Cc1cccc(Nc2ncnc3cc(OCCOC)c(OCCOC)cc23)c1 [Erlotinib],IC50,[2],> 1 µM
same,IC50,[3],> 1 µM
same,IC50,[4],> 1 µM
same,IC50,[5],> 1 µM
same,Phosphorylation of EGFR and its downstream AKT and ERK,[6],inhibited
same,number of p-EGFR and Ki67 positive cells in tumor tissues,[8],strongly decreased
same,decrease of body weight of animals,[8]; HCC827 xenograft models,more than 20%
same,Body weight (g) Begin,[8]; 100 mg/kg/day group,17.65 ± 0.95 g
same,Body weight (g) End,[8]; 100 mg/kg/day oral,13.82 ± 0.75 g
same,tumor growth (in words),"[9]; NCI-H1975 xenograft models, vs. control group",did not inhibit tumor growth
same,Body weight (g) Begin,[9]; 100 mg/kg/day group,16.63 ± 1.02 g
same,IR (%) inhibition rate of tumor growth (tumor weight),[9]; 100 mg/kg/day oral,29.78%
same,Body weight (g) End,[9]; 100 mg/kg/day oral,14.54 ± 1.10 g
